{"source": "patent US20230043204A1", "about": "“DIHYDROERGOTAMINE MESYLATE FORMULATIONS AND PRE-FILLED INJECTORS FOR THERAPEUTIC DELIVERY OF THE SAME” (Scienture, Inc., priority 2019, published 2023)", "type_in_all_cases": "physicochemical", "key": {"[1]": {"test": "Solubility of DHE in solvents (observation)", "conditions": "in DMSO, benzyl alcohol, ethanol, propylene glycol, and captisol", "description": "Based on this discovery and the solubility and stability data generated above for various solvents, preservatives, and antioxidants, additional stable formulations are included as non-limiting examples in Table 15. Prophetic formulations are included as non-limiting examples in Tables 16 and 17."}, "[2]": {"test": "HPLC DHE and specific impurity analysis of formulations O and P on storage", "conditions": "0 Time", "method": "(§1) The examples herein describe analysis of formulations comprising DHE, and analysis of impurity content. Unless specifically indicated otherwise, analysis was carried out by HPLC according to the parameters in Tables 2-4.\n(§2) Mobile Phase A in Tables 3 and 4 contains 2.75 g of sodium 1-heptane sulfonate in 1000 mL Purified Water, pH adjusted to 2.0 with o-phosphoric acid. Mobile Phase B in Tables 3 and 4 contains 200 mL of Mobile Phase A mixed with 800 mL of acetonitrile.\nThe formulation of Table 11 (“P”) was prepared for use in canine studies. An additional formulation was prepared (“O”), replacing DMSO of formula P with an equal amount of propylene glycol."}, "[3]": {"test": "HPLC analysis of formulation J after one day of storage at room temperature", "conditions": "API sample as comparison", "method": "as §1, §2\nAfter one day of storage at room temperature, formulation J was analyzed for DHE and impurities, as shown in the last two rows of Table 8. Testing for specific impurities relative to a sample of API (DHE mesylate) yielded the results of Table 9."}, "[4]": {"test": "5 mg/mL DHE mesylate stability in solvents suitable for parenteral injection (HPLC)", "parameters": "Total Impurities Initial: unit not given here", "conditions": "for DHE (mg/mL) After 1 Week / Total Impurities After 1 Week: 1 week 40° C. sealed vial", "method": "as §1, §2\nSolvents that are suitable for parenteral injections were selected, and solutions of 5 mg/mL DHE mesylate in each (Table 5) were stored at 40° C. in sealed vials. Following 1 week of storage, the remaining amount of DHE was determined by HPLC, indicating solvents compatible with stable DHE storage."}, "[5]": {"test": "Stability of formulations L, M, N at accelerated conditions (40° C., sealed vials; HPLC)", "conditions": "Initial", "method": "as §1, §2\nAdditional formulations “L”, “M”, and “N” were prepared according to Table 9 and analyzed for the concentration of DHE and impurities following one day in sealed vials at 40° C. Specific impurities were analyzed after storage in sealed vials after one and two weeks at 40° C. (Table 10)."}}, "note": "Counter-ions that a name gives are not always drawn."}
{"smiles": "CN1C[C@H](C(=O)N[C@]2(C)O[C@@]3(O)[C@@H]4CCCN4C(=O)[C@H](Cc4ccccc4)N3C2=O)C[C@@H]2c3cccc4[nH]cc(c34)C[C@H]21", "note": "[DHE, (5′α)-9,10-dihydro-12′-hydroxy-2′-methyl-5′-(phenylmethyl)-ergotaman-3′,6′,18-trione]", "values": [{"measurement": "solubility (observation in words)", "setting": "[1]", "value": "highly soluble"}]}
{"smiles": "CN1C[C@H](C(=O)N[C@]2(C)O[C@@]3(O)[C@@H]4CCCN4C(=O)[C@H](Cc4ccccc4)N3C2=O)C[C@@H]2c3cccc4[nH]cc(c34)C[C@H]21", "note": "[DHE Mesylate, ergotaman-3′,6′,19-trione, 9,10-dihydro-12′-hydroxy-2′-methyl-5′-(phenylmethyl)-, (5′α)-, monomethane-sulfonate]", "values": [{"measurement": "% Total Impurities", "setting": "[2]", "value": 0.2, "unit": "%"}, {"measurement": "impurity peak, RRT 0.87", "setting": "[2]", "value": 0}, {"measurement": "impurity peak, RRT 0.92", "setting": "[2]", "value": 0.1}, {"measurement": "impurity peak, RRT 1.21 (Imp-B)", "setting": "[2]", "value": 0.1}, {"measurement": "Total Impurities following 1 day of storage", "setting": "[3]", "value": 0.19}, {"measurement": "impurity peak, RRT 0.75", "setting": "[3]", "value": 0.03}, {"measurement": "impurity peak, RRT 0.84 (Imp-C)", "setting": "[3]", "value": 0.02}, {"measurement": "impurity peak, RRT 0.9", "setting": "[3]", "value": 0.03}, {"measurement": "impurity peak, RRT 1.24", "setting": "[3]", "value": 0.11}, {"measurement": "DHE (mg/mL) Initial", "setting": "[4]; 5 mg/mL solution in 15% solution of Kollidon 30", "value": 1.7, "unit": "mg/mL"}, {"measurement": "DHE (mg/mL) Initial", "setting": "[4]; 5 mg/mL solution in Alcohol, USP", "value": 5, "unit": "mg/mL"}, {"measurement": "DHE (mg/mL) Initial", "setting": "[4]; 5 mg/mL solution in Benzyl Alcohol", "value": 4.9, "unit": "mg/mL"}, {"measurement": "DHE (mg/mL) Initial", "setting": "[4]; 5 mg/mL solution in DMSO", "value": 5.1, "unit": "mg/mL"}, {"measurement": "DHE (mg/mL) Initial", "setting": "[4]; 5 mg/mL solution in Glycerin, USP", "value": 1.3, "unit": "mg/mL"}, {"measurement": "DHE (mg/mL) Initial", "setting": "[4]; 5 mg/mL solution in Glycerin:Ethanol (1:1)", "value": 5.1, "unit": "mg/mL"}, {"measurement": "DHE (mg/mL) Initial", "setting": "[4]; 5 mg/mL solution in N,N Dimethyl Acetamide", "value": 5.1, "unit": "mg/mL"}, {"measurement": "DHE (mg/mL) Initial", "setting": "[4]; 5 mg/mL solution in N-methyl pyrrolidone", "value": 5.1, "unit": "mg/mL"}, {"measurement": "DHE (mg/mL) Initial", "setting": "[4]; 5 mg/mL solution in PEG 200", "value": 4.3, "unit": "mg/mL"}, {"measurement": "DHE (mg/mL) Initial", "setting": "[4]; 5 mg/mL solution in Propylene Glycol", "value": 4.8, "unit": "mg/mL"}, {"measurement": "DHE (mg/mL) Initial", "setting": "[4]; 5 mg/mL solution in Purified water", "value": 4.1, "unit": "mg/mL"}, {"measurement": "DHE (mg/mL) After 1 Week", "setting": "[4]; 15% solution of Kollidon 30", "value": 3.7, "unit": "mg/mL"}, {"measurement": "Total Impurities After 1 Week", "setting": "[4]; 15% solution of Kollidon 30", "value": 9.95}, {"measurement": "Total Impurities Initial", "setting": "[4]; 15% solution of Kollidon 30", "value": 0.24}, {"measurement": "DHE (mg/mL) After 1 Week", "setting": "[4]; Alcohol, USP", "value": 5, "unit": "mg/mL"}, {"measurement": "Total Impurities After 1 Week", "setting": "[4]; Alcohol, USP", "value": 0.38}, {"measurement": "Total Impurities Initial", "setting": "[4]; Alcohol, USP", "value": 0.24}, {"measurement": "DHE (mg/mL) After 1 Week", "setting": "[4]; Benzyl Alcohol", "value": 4.2, "unit": "mg/mL"}, {"measurement": "Total Impurities After 1 Week", "setting": "[4]; Benzyl Alcohol", "value": 2.51}, {"measurement": "Total Impurities Initial", "setting": "[4]; Benzyl Alcohol", "value": 9.58}, {"measurement": "DHE (mg/mL) After 1 Week", "setting": "[4]; DMSO", "value": 5, "unit": "mg/mL"}, {"measurement": "Total Impurities After 1 Week", "setting": "[4]; DMSO", "value": 0.47}, {"measurement": "Total Impurities Initial", "setting": "[4]; DMSO", "value": 0.26}, {"measurement": "DHE (mg/mL) After 1 Week", "setting": "[4]; Glycerin, USP", "value": 6, "unit": "mg/mL"}, {"measurement": "Total Impurities After 1 Week", "setting": "[4]; Glycerin, USP", "value": 0.33}, {"measurement": "Total Impurities Initial", "setting": "[4]; Glycerin, USP", "value": 0.21}, {"measurement": "DHE (mg/mL) After 1 Week", "setting": "[4]; Glycerin:Ethanol (1:1)", "value": 5.1, "unit": "mg/mL"}, {"measurement": "Total Impurities After 1 Week", "setting": "[4]; Glycerin:Ethanol (1:1)", "value": 0.4}, {"measurement": "Total Impurities Initial", "setting": "[4]; Glycerin:Ethanol (1:1)", "value": 0.28}, {"measurement": "DHE (mg/mL) After 1 Week", "setting": "[4]; N,N Dimethyl Acetamide", "value": 5.4, "unit": "mg/mL"}, {"measurement": "Total Impurities After 1 Week", "setting": "[4]; N,N Dimethyl Acetamide", "value": 0.8}, {"measurement": "Total Impurities Initial", "setting": "[4]; N,N Dimethyl Acetamide", "value": 0.13}, {"measurement": "DHE (mg/mL) After 1 Week", "setting": "[4]; N-methyl pyrrolidone", "value": 4.8, "unit": "mg/mL"}, {"measurement": "Total Impurities After 1 Week", "setting": "[4]; N-methyl pyrrolidone", "value": 1.14}, {"measurement": "Total Impurities Initial", "setting": "[4]; N-methyl pyrrolidone", "value": 0.33}, {"measurement": "DHE (mg/mL) After 1 Week", "setting": "[4]; PEG 200", "value": 4.9, "unit": "mg/mL"}, {"measurement": "Total Impurities After 1 Week", "setting": "[4]; PEG 200", "value": 1.36}, {"measurement": "Total Impurities Initial", "setting": "[4]; PEG 200", "value": 0.25}, {"measurement": "DHE (mg/mL) After 1 Week", "setting": "[4]; Propylene Glycol", "value": 5.1, "unit": "mg/mL"}, {"measurement": "Total Impurities After 1 Week", "setting": "[4]; Propylene Glycol", "value": 0.42}, {"measurement": "Total Impurities Initial", "setting": "[4]; Propylene Glycol", "value": 0.26}, {"measurement": "DHE (mg/mL) After 1 Week", "setting": "[4]; Purified water", "value": 4.4, "unit": "mg/mL"}, {"measurement": "Total Impurities After 1 Week", "setting": "[4]; Purified water", "value": 3.5}, {"measurement": "Total Impurities Initial", "setting": "[4]; Purified water", "value": 0.24}, {"measurement": "% Total Impurities", "setting": "[5]", "value": 0.2, "unit": "%"}, {"measurement": "impurity peak, RRT 0.87", "setting": "[5]", "value": 0}, {"measurement": "impurity peak, RRT 0.92", "setting": "[5]", "value": 0.1}, {"measurement": "impurity peak, RRT 1.22 (Impurity B)", "setting": "[5]", "value": 0.1}]}
